Results: US10030016B2 (Sunesis Pharmaceuticals, Inc., priority 2009, dated 2018)
Structures can show the parent of a compound that is named as a salt. Where two headings read alike, the source gives them in different places.

Columns and labels:
PDK1 = PDK1 (Homo sapiens (Human), UniProt O15530); assay: PDK1 kinase assay (coupled PDK1/AKT/FAM-crosstide assay, IMAP fluorescence polarization); type: biochemical
Procedure: A PDK1 kinase assay was performed as follows. PDK1 (amino acids 51-359) and AKT2 (amino acids 140-467 fused to PIFtide, amino acids […]) were expressed as N-terminally tagged GST fusion proteins in insect cells and purified to homogeneity. Enzyme activity was determined in a coupled PDK1/AKT/FAM-crosstide assay and phosphorylation of FAM-crosstide was determined by standard IMAP protocol (Molecular Devices). For inhibition studies, compounds were titrated 4-fold in DMSO and diluted 40-fold into assay buffer (10 mM Tris HCl pH7.2; 10 mM MgCl2; 0.01% Triton X-100; 1 mM DTT) containing PDK1, AKT2, and FAM-crosstide (final concentrations: 0.75 nM PDK1, 10 nM unphosphorylated AKT2, and 100 nM crosstide substrate). The kinase reaction was initiated by adding ATP to a final concentration of 40 μM of PDK1 and incubated at 25° C. for 30 min. To detect assay product, the kinase reaction was combined with Progressive Binding Solution (1:600 Progressive Binding Reagent, 50% Buffer A, 50% Buffer B, Molecular Devices) in a 1:3 ratio. The mixture was incubated for 2 hours at 25° C. and the plate was scanned on an Analyst AD with excitation at 485 nm and emission at 530 nm. The fluorescence polarization value “P” is defined by the equation below. The value “mP” is generated by multiplying the P value for each reaction well by a factor of 1000. The value “ΔmP” for each well is the mP value for that well minus the mP value for the average negative control. P=(Fpar−Fperp)/(Fpar+Fperp) Eq.:
Where “par” is fluorescence intensity parallel to the excitation plane; and “perp” is fluorescence intensity perpendicular to the excitation plane. ΔmP values were plotted as a function of compound concentration and the data were analyzed with a 4-parameter fit using GraphPad Prism software.

[1] = tested on: phospho-akt (Thr308) in PC-3 cells; assay: Inhibition of phospho-akt (Thr308) in PC-3 cells, MSD phospho-akt 308 ELISA kit; type: cell-based; details: 2 hours, no serum, read-out: EC50
Procedure: PC-3 cells were harvested by trypsin and counted. Cells were plated in coated 96-well flat bottom plates (plate 15,000 cells/well in 100 ul growth media (10% FBS, 1× pen-strep) an place in an incubator overnight.
Subject inhibitors were stocked at 50 mM, then diluted to 30 mM (4.8 μl cpd plus […] DMSO) in 100% DMSO. Three-fold dilutions were performed from 30 mM stock. (4 μl into 8 ul 100% DMSO). Aliquots of 1.0 μl of inhibitor solution were transferred into SF Medium (using deep well block).
Control wells were prepared as follows. For DMSO high controls, 1.0 μl of 100% DMSO was added into 1.0 ml SF. For low controls for PC-3 cells, 5 μM of Wortmannin (10 μl of 1 mM Wortmannin stock was added into 2 ml SF Medium. The supernatant media was removed and the plate was blotted. 100 μl of controls/media or compound/media were added to cells and placed in incubator for 2 hours. The supernatant media was removed and the plate was blotted. 55 μl of the MSD complete lysis buffer was added (10 mls Tris Lysis buffer, 200 ul protease inhibitor, 100 ul phosphatase inhibitor 1, and 100 ul phosphatase inhibitor II). The plate was placed on a plate shaker for 60 mins at 4 deg.
MSD plates were blocked for 1 hour by adding 150 μl of Blocking Solution (3% BSA) to each well. The MSD plates were washed 4× with TBST, and 50 μl lysates were transferred to MSD plate and place on plate shaker shake at 4 degrees O/N, light shaking (speed 3.5). The plate was washed 4× with TBST.
25 μl of Ab detection solution was added to each well. The plate was sealed and incubated 1 hr RT, light shaking (speed 3.5). The plate was washed 4 times with TBST. 150 μl of Read Buffer was added (5 mls 4×MSD Read Buffer+15 mls water). Finally the plate was read immediately on the MSD plate reader.

[2] = Homo sapiens, inhibition of P308 Akt in PC-3 cells using MSD
[3] = inhibition of phospo-PDK1 in vitro
[4] = Homo sapiens, inhibition of P308 Akt in PC-3 cells, MSD
[5] = inhibition of P308 Akt in PC-3 cells using MSD

PDK1, sequence (O15530 51-359): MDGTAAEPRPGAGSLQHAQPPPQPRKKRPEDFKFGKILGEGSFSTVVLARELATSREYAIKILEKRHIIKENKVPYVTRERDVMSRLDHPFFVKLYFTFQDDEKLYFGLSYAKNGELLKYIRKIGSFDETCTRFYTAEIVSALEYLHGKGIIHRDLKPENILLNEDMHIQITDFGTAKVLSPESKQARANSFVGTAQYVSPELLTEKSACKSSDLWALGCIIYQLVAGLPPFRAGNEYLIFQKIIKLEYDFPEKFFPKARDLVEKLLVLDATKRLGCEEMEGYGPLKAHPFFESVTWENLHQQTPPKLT

Molecule	IC50 (PDK1; inhibition of PDK1 in vitro) [µM]	EC50 [1, 2] [µM]	IC50 (PDK1; [3]) [µM]	EC50 [1, 4] [µM]	other results
CC(N)CCc1nc(-c2ccc(CNc3ncc(C#N)nc3C(=O)N[C@@H](C)c3ccc(F)c(F)c3)cc2)cnc1N (stereo partly drawn) [Example 87, 3-{4-[5-Amino-6-(3-amino-butyl)-pyrazin-2-yl]-benzylamino}-6-cyano-pyrazine-2-carboxylic acid [(S)-1-(3,4-difluoro-phenyl)-ethyl]-amide]	< 0.1	< 1			
C[C@H](NC(=O)c1cc(C#N)cnc1NCc1ccc(-c2cnc(N)c(N3CCC[C@H](N)C3)n2)cc1)c1ccc(F)cc1 [Example 197]	< 0.1	< 1			
Cc1nc(C)c(/C=C2\C(=O)Nc3cc(/C=C/CNc4ncccc4C(=O)NCc4ccc(F)c(F)c4)ccc32)[nH]1 [Example 15.14, N-(3,4-Difluoro-benzyl)-2-((E)-3-{3-[1-(2,5-dimethyl-3H-imidazol-4-yl)-meth-(Z)-ylidene]-2-oxo-2,3-dihydro-1H-indol-6-yl}-allylamino)-nicotinamide]			< 0.1	< 1	
Nc1ncnc2ccc(-c3ccc(CNc4ncc(NS(=O)(=O)C(F)(F)F)cc4C(=O)NCc4ccc(F)c(F)c4)s3)cc12 [Example 8.6.3]			0.1 to 1	1 to 10	
Cn1cnc2cnc3ccc(-c4cnc(CNc5ncccc5C(=O)NCc5ccc(F)c(F)c5)s4)cc3c21 [Example 384, N-(3,4-Difluoro-benzyl)-2-{[5-(1-methyl-1H-imidazo [4,5-c]quinolin-8-yl)-thiazol-2-ylmethyl]-amino}-nicotinamide]	< 0.1	< 1			
Nc1ncnc2ccc(-c3ccc(CNc4ncc(F)cc4C(=O)NCc4ccc(F)c(F)c4)s3)cc12 [Ex. 7.3.1]			< 0.1	< 1	
C[C@H](NC(=O)c1cccnc1NCc1ccc(-c2ccc3nc(N)[nH]c3c2)s1)c1ccc(F)cc1 [Example 2.21, (S)-2-(((5-(2-amino-1H-benzo[d]imidazol-6-yl)thiophen-2-yl)methyl)amino)-N-(1-(4-fluorophenyl)ethyl)nicotinamide]			1 to 5	> 10	
C[C@H](NC(=O)c1cc(C(F)(F)F)cnc1NCc1ccc(-c2ccc3ncc4ncn(C)c4c3c2)s1)c1ccc(F)c(F)c1 [Example 2.27, (S)-5-trifluoromethyl-N-(1-(3,4-difluorophenyl)ethyl)-2-(((5-(1-methyl-1H-imidazo[4,5-c]quinolin-8-yl)thiophen-2-yl)methyl)amino)nicotinamide]			< 0.1	< 1	
C[C@H](NC(=O)c1cc(C#N)cnc1NCc1ccc(-c2cnc(N)c(NCC(O)CO)n2)cc1)c1ccc(F)cc1 (stereo partly drawn) [Example 243, 2-{4-[5-Amino-6-(2,3-dihydroxy-propylamino)-pyrazin-2-yl]-benzylamino}-5-cyano-N-[(S)-1-(4-fluoro-phenyl)-ethyl]-nicotinamide]	< 0.1	< 1			
(S)-2-(4-(4-amino-7-methyl- 7H-pyrrolo[2,3-d]pyrimidin- 5-yl)benzylamino)-fluorophenyl) ethyl)nicotinamide [Example 97]	< 0.1				EC50 [1, 5]: < 1 µM
COc1cnc(NCc2ccc(-c3ccc4ncnc(N)c4c3)s2)c(C(=O)NCc2ccc(F)c(F)c2)c1 [Example 8.1.2, 2-({[5-(4-aminoquinazolin-6-yl)thiophen-2-yl]methyl}amino)-N-(3,4-difluorobenzyl)-5-methoxypyridine-3-carboxamide]			< 0.1	< 1	
Nc1ncnc2ccc(-c3ccc(CNc4ncccc4C(=O)NCc4ccc(F)c(F)c4F)s3)cc12 [Example 3.16, 2-({[5-(4-aminoquinazolin-6-yl)thiophen-2-yl]methyl}amino)-N-(2,3,4-trifluorobenzyl)pyridine-3-carboxamide (TFA salt)]			< 0.1	1 to 10	
CC(C)Oc1cc(CNc2ncccc2C(=O)NCc2ccc(F)c(F)c2)cc(-c2c[nH]c3ncc(-c4ccn[nH]4)cc23)c1 [Example 53, 2-(3-(5-(1H-pyrazol-5-yl)-1H-pyrrolo[2,3-b]pyridin-3-yl)-5-isopropoxybenzylamino)-N-(3,4-difluorobenzyl)nicotinamide]	< 0.1	1 to 10			
C[C@H](NC(=O)c1cc(C#N)cnc1NCc1ccc(-c2cn(S(=O)(=O)c3ccccc3)nc2N)cc1)c1ccc(F)cc1 [Example 143, (S)-2-(4-(3-amino-1-(phenylsulfonyl)-1H-pyrazol-4-yl)benzylamino)-5-cyano-N-(1-(4-fluorophenyl)ethyl) nicotinamide]	> 5	> 10			
C[C@H](NC(=O)c1nc(C#N)cnc1NCc1ccc(-c2cnc(N)c(CCC3CCCNC3)n2)cc1)c1ccc(F)c(F)c1 (stereo partly shown) [Example 81]		1 to 10			IC50 (PDK1): < 0.1 µM
C[C@H](NC(=O)c1cccnc1NCc1ccc(-c2ccc3ncnc(N)c3c2)s1)c1ccc(F)cc1F [Example 3.61, (S)-2-(((5-(4-aminoquinazolin-6-yl)thiophen-2-yl)methyl)amino)-N-(1-(2,4-difluorophenyl)ethyl) nicotinamide (TFA salt)]			0.1 to 1	> 10	
CCCNS(=O)(=O)c1cnc(NCc2ccc(-c3ccc4ncnc(N)c4c3)s2)c(C(=O)NCc2ccc(F)c(F)c2)c1 [Example 8.6.9, 2-(((5-(4-aminoquinazolin-6-yl)thiophen-2-yl)methyl)amino)-N-(3,4-difluorobenzyl)-5-(N-propylsulfamoyl) nicotinamide]			0.1 to 1	1 to 10	
C[C@H](NC(=O)c1cc(C#N)cnc1Nc1ccc(-c2cnc3[nH]nc(N)c3c2)cc1)c1ccc(F)cc1 [Example 424, (S)-2-(4-(3-amino-1H-pyrazolo[3,4-b]pyridin-5-yl)phenylamino)-5-cyano-N-(1-(4-fluorophenyl)ethyl)nicotinamide]	< 0.1	1 to 10			
2-(4-(3-amino-1H-pyrazolo [3,4-b]pyridin-5-yl) benzylamino)-N-(thiazol- 4-yl)-5-(trifluoromethyl) nicotinamide [Example 287]	0.1 to 1				EC50 [1, 5]: > 10 µM
COc1ccc([C@H](COc2ccc3[nH]c(=O)[nH]c3c2)Nc2ncccc2C(=O)N[C@@H](C)c2ccc(F)c(F)c2)cc1 [Example 16.8, N-((S)-1-(3,4-difluorophenyl)ethyl)-2-(((R)-1-(4-methoxyphenyl)-2-(2-oxo-2,3-dihydro-1H-benzo[d]imidazol-5-yloxy)ethyl)amino)nicotinamide]			1 to 5		EC50 ([1]; Homo sapiens, PC-3, 2 h, inhibition of P308 Akt in PC-3 cells, MSD): > 10 µM
C[C@H](NC(=O)c1cccnc1NCc1ccc(-c2ccc3ncncc3c2)s1)c1ccc(F)cc1 [Example 2.11, (S)-N-(1-(4-fluorophenyl)ethyl)-2-(((5-(quinazolin-6-yl)thiophen-2-yl)methyl)amino)nicotinamide]			0.1 to 1		
Nc1ncnc2ccc(-c3ccc(CNc4ncccc4S(=O)(=O)NCc4ccc(F)c(F)c4)s3)cc12 [Example 20.2, 2-(((5-(4-aminoquinazolin-6-yl)thiophen-2-yl)methyl)amino)-N-(3,4-difluorobenzyl)pyridine-3-sulfonamide]			> 5		
O=C(NC1CC1)c1cccnc1NCc1cccc(-c2c[nH]c3ncccc23)c1 [Example 1.12, N-cyclopropyl-2-{[3-(1H-pyrrolo [2,3-b]pyridin-3-yl)benzyl]amino} pyridine-3-carboxamide]			> 5		
